# The source made the active and inactive calls. No cut-off for these calls is given here.
# Tests used:
# Mus musculus [1] = assay: In vivo inhibition of aSMase in C57BL/6 mouse assessed as decrease in liver ceramide level at 6 to 40 mg/kg, ip bid for 1 week by ELISA method; type: functional, organism-based; details: dose 6-40 mg/kg, time 1.0 weeks
# [2] = Tmax in ICR mouse at 1 mg/kg, iv measured for 0.083 to 24 hrs by LC-MS/MS analysis; type: ADME, organism-based; details: in vivo, time 0.083-24 hrs
# Mus musculus [3] = assay: Antiatherosclerotic activity in high-fat diet fed ApoE-/- mouse assessed as reduction in plasma total triacylglycerol level at 12 to 40 mg/kg, ip bid measured after 8 weeks; type: functional, organism-based; details: dose 12-40 mg/kg
# HUVEC [4] = assay: Effect on extracellular S1P level in HUVEC cells upto 5 uM measured after 22 hrs by ELISA method; type: functional, cell-based; details: Homo sapiens
# HUVEC [5] = assay: Effect on extracellular S1P level in Ox-LDL-induced HUVEC cells upto 5 uM measured after 22 hrs by ELISA method; type: functional, cell-based; details: Homo sapiens
# Mus musculus [6] = assay: In vivo inhibition of aSMase in C57BL/6 mouse assessed as decrease in plasma S1P level at 6 to 40 mg/kg, ip bid for 1 week by ELISA method; type: functional, organism-based; details: dose 6-40 mg/kg, time 1.0 weeks
# HUVEC [7] = assay: Antiinflammatory activity against HUVEC cells assessed as decrease in LPS-induced IL-6 level measured after 22 hrs by ELISA method; type: functional, cell-based; details: Homo sapiens, dose 1-5 µM
# Mus musculus [8] = assay: In vivo inhibition of aSMase in C57BL/6 mouse assessed as decrease in plasma ceramide level at 6 to 40 mg/kg, ip bid for 1 week by ELISA method; type: functional, organism-based; details: dose 6-40 mg/kg, time 1.0 weeks
# [9] = AUC (0 to infinity) in ICR mouse at 10 mg/kg, po measured for 0.083 to 24 hrs by LC-MS/MS analysis; type: ADME, organism-based; design: time lower 0.083 hrs, dose 10 mg/kg, time upper 24 hrs, route po; details: in vivo
# [10] = MRT (0 to infinity) in ICR mouse at 1 mg/kg, iv measured for 0.083 to 24 hrs by LC-MS/MS analysis; type: ADME, organism-based; details: in vivo, time 0.083-24 hrs
# [11] = Cmax in ICR mouse at 1 mg/kg, iv measured for 0.083 to 24 hrs by LC-MS/MS analysis; type: ADME, organism-based; design: time lower 0.083 hrs, dose 1 mg/kg, time upper 24 hrs, route iv; details: in vivo
# [12] = biological target: T1, Sphingomyelin phosphodiesterase (Homo sapiens, UniProt P17405); assay: Inhibition of recombinant human aSMase (62 to 628 residues) using HMU-PC as substrate incubated for 2 hrs by fluorescence based assay
# T1 sequence (P17405 whole entry): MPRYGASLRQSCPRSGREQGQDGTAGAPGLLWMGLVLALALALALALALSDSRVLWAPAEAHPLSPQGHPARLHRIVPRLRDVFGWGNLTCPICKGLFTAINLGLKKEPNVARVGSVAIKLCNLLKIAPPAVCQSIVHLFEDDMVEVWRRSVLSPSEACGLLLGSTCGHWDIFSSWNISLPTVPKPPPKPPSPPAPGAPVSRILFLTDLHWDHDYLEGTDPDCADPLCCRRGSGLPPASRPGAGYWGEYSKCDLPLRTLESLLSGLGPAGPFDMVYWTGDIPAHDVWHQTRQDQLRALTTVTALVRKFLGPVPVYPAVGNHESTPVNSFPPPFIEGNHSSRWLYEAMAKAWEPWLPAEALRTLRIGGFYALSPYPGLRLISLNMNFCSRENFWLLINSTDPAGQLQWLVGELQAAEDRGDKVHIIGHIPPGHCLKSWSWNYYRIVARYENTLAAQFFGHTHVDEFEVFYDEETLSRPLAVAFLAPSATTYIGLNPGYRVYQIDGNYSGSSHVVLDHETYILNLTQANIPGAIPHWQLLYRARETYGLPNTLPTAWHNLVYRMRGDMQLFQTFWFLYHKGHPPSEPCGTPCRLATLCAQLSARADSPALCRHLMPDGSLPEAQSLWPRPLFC
# Mus musculus [13] = assay: In vivo inhibition of aSMase in C57BL/6 mouse assessed as decrease in liver S1P level at 6 to 40 mg/kg, ip bid for 1 week by ELISA method; type: functional, organism-based; details: dose 6-40 mg/kg, time 1.0 weeks
# [14] = Half life in ICR mouse at 10 mg/kg, po measured for 0.083 to 24 hrs by LC-MS/MS analysis; type: ADME, organism-based; details: in vivo, time 0.083-24 hrs
# HUVEC [15] = assay: Downregulation of intracellular ceramide level in HUVEC cells at 5 uM measured after 22 hrs by ELISA method; type: functional, cell-based; details: Homo sapiens
# [16] = AUC (0 to t) in ICR mouse at 1 mg/kg, iv measured for 0.083 to 24 hrs by LC-MS/MS analysis; type: ADME, organism-based; design: time 0.083-24 hrs, dose 1 mg/kg, route iv; details: in vivo
# [17] = Apparent volume of distribution in ICR mouse at 1 mg/kg, iv measured for 0.083 to 24 hrs by LC-MS/MS analysis; type: ADME, organism-based; details: in vivo, time 0.083-24 hrs, read-out: Vz
# [18] = MRT (0 to t) in ICR mouse at 1 mg/kg, iv measured for 0.083 to 24 hrs by LC-MS/MS analysis; type: ADME, organism-based; details: in vivo, time 0.083-24 hrs
# Mus musculus [19] = assay: In vivo inhibition of aSMase in C57BL/6 mouse assessed as decrease in liver sphingomyelin level at 6 to 40 mg/kg, ip bid for 1 week by ELISA method; type: functional, organism-based; details: dose 6-40 mg/kg, time 1.0 weeks
# HUVEC [20] = assay: Downregulation of extracellular ceramide level in LPS-induced HUVEC cells upto 5 uM measured after 22 hrs by ELISA method; type: functional, cell-based; details: Homo sapiens
# HUVEC [21] = assay: Downregulation of intracellular ceramide level in Ox-LDL-induced HUVEC cells at 5 uM measured after 22 hrs by ELISA method; type: functional, cell-based; details: Homo sapiens
# HUVEC [22] = assay: Downregulation of extracellular ceramide level in Ox-LDL-induced HUVEC cells upto 5 uM measured after 22 hrs by ELISA method; type: functional, cell-based; details: Homo sapiens
# Mus musculus [23] = assay: Antiatherosclerotic activity in high-fat diet fed ApoE-/- mouse assessed as reduction in plasma ceramide level administered intraperitoneally twice daily measured after 8 weeks by ELISA method; type: functional, organism-based; details: dose 12-40 mg/kg, route ip
# [24] = Clearance in ICR mouse at 1 mg/kg, iv measured for 0.083 to 24 hrs by LC-MS/MS analysis; type: ADME, organism-based; details: in vivo, time 0.083-24 hrs
# HUVEC [25] = assay: Upregulation of intracellular sphingomyelin level in HUVEC cells measured after 22 hrs by ELISA method; type: functional, cell-based; details: Homo sapiens, dose <= 5.0 µM
# Mus musculus [26] = assay: Antiatherosclerotic activity in high-fat diet fed ApoE-/- mouse assessed as reduction in plasma total cholesterol level at 12 to 40 mg/kg, ip bid measured after 8 weeks; type: functional, organism-based; details: dose 12-40 mg/kg
# Mus musculus [27] = assay: Antiatherosclerotic activity in high-fat diet fed ApoE-/- mouse assessed as reduction in plasma Ox-LDL-C level at 40 mg/kg, ip bid measured after 8 weeks; type: functional, organism-based
# [28] = Cmax in ICR mouse at 10 mg/kg, po measured for 0.083 to 24 hrs by LC-MS/MS analysis; type: ADME, organism-based; design: time upper 24 hrs, time lower 0.083 hrs, dose 10 mg/kg, route po; details: in vivo
# HUVEC [29] = assay: Upregulation of intracellular sphingomyelin level in Ox-LDL-induced HUVEC cells measured after 22 hrs by ELISA method; type: functional, cell-based; details: Homo sapiens, dose <= 5.0 µM
# HUVEC [30] = assay: Cytotoxicity against HUVEC cells assessed as cell growth inhibition at 0.5 to 20 uM incubated for 24 to 48 hrs by MTT assay; type: toxicity, cell-based; details: human, dose lower 0.5 µM, time lower 24 hrs, dose upper 20 µM, time upper 48 hrs
# HUVEC [31] = assay: Upregulation of intracellular sphingomyelin level in LPS-induced HUVEC cells measured after 22 hrs by ELISA method; type: functional, cell-based; details: Homo sapiens, dose <= 5.0 µM
structure (smiles),measurement,setting,value
O=C(NO)c1nc(-c2ccc(COc3ccc(Br)cc3)cc2)no1,Activity,Mus musculus [1],Active
same,Tmax,[2],4.98 min
same,Activity,Mus musculus [3],inactive
same,Activity,HUVEC [4],inactive
same,Activity,HUVEC [5],inactive
same,Activity,Mus musculus [6],inactive
same,Activity,HUVEC [7],Dose-Dependent Effect
same,Activity,Mus musculus [8],Active
same,AUC(0-inf),[9],809 ng·h/mL
same,MRT inf,[10],5.22 min
same,Cmax,[11],787 ng/mL
same,IC50,[12],1500 nM
same,Activity,Mus musculus [13],Active
same,half-life,[14],49.8 min
same,Activity,HUVEC [15],Active
same,AUC(0-t),[16],227 ng·h/mL
same,Vd,[17],1.28 L/kg
same,MRT last,[18],4.62 min
same,Activity,Mus musculus [19],Active
same,Activity,HUVEC [20],Active
same,Activity,HUVEC [21],Active
same,Activity,HUVEC [22],Active
same,Activity,Mus musculus [23],Dose-Dependent Effect
same,clearance,[24],73.2 mL/min/kg
same,Activity,HUVEC [25],Dose-Dependent Effect
same,Activity,Mus musculus [26],inactive
same,Activity,Mus musculus [27],Active
same,Cmax,[28],2760 ng/mL
same,Activity,HUVEC [29],Dose-Dependent Effect
same,Activity,HUVEC [30],Non-Toxic
same,Activity,HUVEC [31],Dose-Dependent Effect

# — ChEMBL document CHEMBL5380809, “Discovery of Novel N-Hydroxy-1,2,4-oxadiazole-5-formamides as ASM Direct Inhibitors for the Treatment of Atherosclerosis” (J Med Chem, 2023)
